Article PMC9882606, “Rationally designed inhibitors of the Musashi protein-RNA interaction by hotspot mimicry” (Research Square, 2023)

Columns and labels:
[1] = target: T1, MSI1 RRM1 (Homo sapiens, UniProt O43347); assay: Fluorescence polarization (FP) competition assay with fluorescein-labeled RNA; type: binding; conditions: for inhibition in FP competition assay: MSI1 RRM1, result in words
T1 sequence (O43347 20-110 limits assumed): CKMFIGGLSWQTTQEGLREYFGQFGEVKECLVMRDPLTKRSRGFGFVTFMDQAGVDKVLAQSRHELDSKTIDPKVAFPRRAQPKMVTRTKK
From the text: Figure 1: The hotspot mimicry approach. […] (A) The structure of the MSI1 / RNA complex. The RNA (sticks) wraps around the protein (spheres). Two adjacent bases, A106 and G107 (magenta), are buried in a shallow pocket on the protein surface. (B) An interaction map is generated from the RNA in the complex, by collecting deeply buried bases (magenta) and atoms involved in intermolecular hydrogen bonds (acceptors shown in yellow, donors in green). […] Positive values indicate diminished binding when a given base is replaced with an abasic site, showing that A106 and G107 contribute more than the other nearby bases to the binding affinity of this interaction. (E) The hotspot pharmacophore serves as a template for ligand-based screening, searching for compounds that would mimic the three-dimensional features of the pharmacophore. The screen led to the identification of compound R12, which mimics the geometry of the rings and provides three of the four desired hydrogen bonding groups. (F) R12 competes with fluorescein-labeled RNA for MSI1 binding, as observed through a fluorescence polarization assay. […] (G) Superposition of the hotspot pharmacophore back onto the protein structure illustrates the interactions that should be captured by an ideal ligand: stacking against three aromatic sidechains, and four intermolecular hydrogen bonds.
We applied our “hotspot mimicry” approach to the structure of Musashi-1 RRM1 bound to cognate RNA [54], and found a single hotspot pharmacophore derived from an adjacent pair of buried bases, Adenine106 and Guanine107 (Figure 1a). […] This pharmacophore captures both the aromatic stacking and the hydrogen bonding of the RNA hotspot through its inclusion of ring moieties and donor/acceptor positions, respectively (Figure 1c). To test whether these two particular bases indeed serve as a hotspot of the MSI1 RRM1 / RNA interaction, we used a fluorescence polarization (FP) competition assay (see Supporting Methods) to measure the binding affinity of RNA variants that maintained the backbone but lacked individual bases. […] In contrast, introduction of an abasic site at other nearby positions affected binding much less. Confirmation that A106 and G107 serve as hotspot bases of this interaction thus provided experimental evidence supporting the pharmacophore selection from our computational approach.

[2] = Solubility as noted during FP testing; type: physicochemical; conditions: result in words
From the text: We then used this pharmacophore as a template for virtual screening. The 12 top-scoring hits identified from the resulting screen could each be classified into one of three diverse chemotypes (Figure S1). While none of these scaffolds bear any obvious resemblance in chemical structure to a nucleobase pair, the overlap in three-dimensional shape and hydrogen bonding potential between the hotspot pharmacophore and the modeled conformation of each compound is immediately evident. Despite this strong similarity, none of the 12 hit compounds recapitulated all four of the polar groups included in the hotspot pharmacophore, and only three hit compounds matched to three of the polar groups: R12 (Figure 1e), its close analog R4, and R7 (Figure S2).
(§1) Out of concern that R12–7’s activity may be associated with compound aggregation, we elected to continue with optimization of R12–8 (Figure 2b).

[3] = tested on: MSI2; assay: Immunoblot of cellular MSI2 protein levels in PC9 cells; type: cell-based, human; conditions: PC9, 20 μM compound for 1, 3, 6, 24, or 48 hours
From the text: To explore the effect of these MSI2 inhibitors in a cancer-relevant cellular context, we selected two MSI2-dependent cancer cell lines: non-small cell lung cancer cell line PC9 and leukemia cell line K562 [73, 98–101]. Upon treatment of PC9 cells with Ro, R12–8–44–3, or negative control R12-neg, we found at multiple time points that cellular MSI2 protein levels were unchanged (Figure 6a). To confirm target engagement, we therefore adapted the cellular thermal shift assay (CETSA). To determine experimental conditions, we first harvested cells and incubated at increasing temperatures; we then removed aggregated protein by centrifugation and used Western blotting to probe the amount of MSI2 remaining in the soluble fraction (Figure 6b, Figure S9). Having established 49 °C as the midpoint of the transition under these (non-equilibrium) conditions, we then treated cells with our candidate MSI2 inhibitor for 3 h, and heated to 49 °C.
Figure 6: Direct cellular engagement of MSI2 interaction by R12–44–3. (A) Immunoblot from PC9 cells treated with Ro (positive control), R12-neg (negative control), or R12–8–44–3. Cells were treated with 20 μM compound for 1, 3, 6, 24, or 48 hours. MSI2 protein abundance was then quantified and normalized to untreated sample. One representative image is shown; quantification is presented as the average ± S.E.M. from 3 independent replicates. (B) Thermal-induced aggregation of cellular MSI2 in the PC9 cell line. Cells were briefly incubated at temperatures between 40 °C to 67 °C, then centrifuged and the amount of MSI2 remaining in the soluble fraction was quantified by Western blotting. […] One representative image is shown; quantification is presented as the average ± S.E.M. from 3 independent replicates, normalized first to beta-actin and then to DMSO control. […] One representative image is shown; quantification is presented as the average ± S.E.M. from 3 independent replicates, normalized first to beta-actin and then to DMSO control. […]

[4] = tested on: PC9 cells; assay: CellTiter-Blue cell viability, PC9; type: cell-based, human; conditions: PC9, 3 days, dose-response
Protocol: (§2) Figure 7: Cellular characterization of MSI2 inhibition by R12–8–44–3. (A) Quantification of mRNA immunoprecipitation (RIP) results. Cells were treated with 10 μM of the indicated compounds for 8 hours. After immunoprecipitation with anti-MSI2, mRNA targets were quantified. The amount of each target mRNA in the pulldown was calculated relative to the input, and results from all targets were normalized to PTP4A1. Treating cells with R12–8–44–3 disrupted the interaction with all four cognate mRNAs (PTP4A, SMAD3, EGFR, and MSI2). Data are presented as the average ± S.E.M. from at least 3 independent replicates. […] Cells were treated with indicated compounds at two concentrations (5 μM and 20 μM) for 48 hours, then protein levels of relevant MSI2 targets were determined (EGFR, SMAD3, and MSI2). One representative image is shown; quantification is presented as the average ± S.E.M. from at least 3 independent replicates, normalized first to beta-actin and then to DMSO-treated cells. (C) Cell viability dose-response quantified by CellTiter-Blue after 3 days (left) and cell proliferation with 10μM of compounds quantified by clonogenic assay after 7 days (right). […] (D) Cell viability quantified by clonogenic assay of PC9 cell line after 7-day treatment with 2 nM osimertinib (osi alone), osimertinib with 10 μM R12–8–44–3, or osimertinib with 10 μM R12-neg. […]

[5] = tested on: PC9 cells; assay: Clonogenic assay, PC9; type: cell-based, human; conditions: PC9, 10 μM, 7 days
Protocol: as §2

[6] = tested on: MSI1/MSI2; design: method as in PMID 31217428, PMID 36167829; conditions: in vitro; cited from earlier work
[7] = tested on: leukemia/lymphoma models; design: method as in PMID 31217428, PMID 36167829; conditions: in vivo leukemia/lymphoma models; cited from earlier work
[8] = target: MSI2 (Homo sapiens, UniProt Q96DH6); assay: MS2-TRAP aptamer pull-down reporter assay in HEK293 cells; type: cell-based; design: HEK293 cells (with a high baseline MSI2 expression); endogenous in cells; host or cells: HEK293; conditions: HEK293, 24 h treatment; for total amount of MSI2 in cells: input prior to IP; for amount of Luc mRNA in cells (qPCR): prior to IP
From the text: Figure 5: Characterization of R12–8–44–3 in a reporter cell line. […] As a positive control, Ro 08–2750 (aka “Ro”) is also included in these studies. (B) Schematic of reporter assay. HEK293 cells are transfected with a plasmid encoding an arbitrary gene (Luc) with UAG repeats (to recruit MSI2) and MS2 repeats (for pulldown) appended to its 3’ UTR. The same vector also includes FLAG-labeled MS2-BP. Upon anti-FLAG immunoprecipitation (IP), the FLAG-labeled MS2-BP allows purification of the Luc mRNA along with any associated factors. (C) Prior to IP, cells express Luc mRNA to a similar extent irrespective of whether they were treated with DMSO, R12-neg, R12–8–44–3, or Ro. (D) Prior to IP (“input”), MSI2 is detected in all samples to a similar extent (as is KU-86 loading control). After pulldown of Luc mRNA, MSI2 is found associated with the mRNA in cells treated with DMSO or R12-neg, but not in cells that had been treated with R12–8–44–3 or Ro. Representative image is shown; quantification is plotted as the average of 2 independent experiments ± S.E.M. Statistical analysis was performed using unpaired two tailed t-test, with * indicating p<0.05. Uncropped Western blots from this experiment are provided as Figure S8.
To determine whether inhibition of MSI1/MSI2 by R12–8–44–3 would apply in a cellular context, we adapted an aptamer pull-down reporter assay that we previously used to validate candidate Musashi target genes. Briefly, our approach is a variation of the MS2-TRAP (MS2-tagged RNA affinity purification) method, which uses bacteriophage protein MS2-BP to extract from cells any factors that associate with RNAs containing a specific stem-loop structure (MS2) from the phage genome. Here, we designed an mRNA construct that would include a series of MS2 hairpins and also a MSI2 recognition sequence. We transfected this construct into cells that also express FLAG-tagged MS2-BP (a protein unrelated to MSI2). By affinity purification using the FLAG tag, proteins bound to the designed mRNA can be extracted from cells.
To test for inhibition of MSI2 in cells, we transfected HEK293 cells (with a high baseline MSI2 expression), with the pMS2-LUC-3’UTR from our previous studies. This vector appends onto the 3’UTR of an arbitrary gene (in this case luciferase) two key elements: UAG-motifs comprising a MSI2 recognition sequence, and a series of five MS2 hairpins. The same vector also encodes the FLAG-MS2-BP fusion needed for affinity purification (Figure 5b). Cells were then treated with each compound of interest for 24 h, and then the cells were subsequently harvested and used for anti-FLAG immunoprecipitation. […] Using qPCR we evaluated the amount of Luc mRNA in cells treated with R12–8–44–3, R12-neg, or Ro, and found this to be unchanged (Figure 5c).

[9] = target: T1, MSI1 RRM1; assay: Differential Scanning Fluorimetry (DSF); type: binding; conditions: increasing compound dose
From the text: as §1
To further characterize R12–8–44–3, we applied differential scanning fluorimetry (DSF) as an orthogonal secondary assay. […] While this could be a sign of apparent inhibition occurring through aggregation, there are also legitimate inhibitors that reduce their target protein’s melting temperature. An alternate explanation could simply be that MSI1’s folding landscape is not simply two-state, and that a partially-folded intermediate stabilized by R12–8–44–3 affects the unfolding transition.

Sequence of MSI2 (Homo sapiens, UniProt Q96DH6) (Q96DH6 whole entry): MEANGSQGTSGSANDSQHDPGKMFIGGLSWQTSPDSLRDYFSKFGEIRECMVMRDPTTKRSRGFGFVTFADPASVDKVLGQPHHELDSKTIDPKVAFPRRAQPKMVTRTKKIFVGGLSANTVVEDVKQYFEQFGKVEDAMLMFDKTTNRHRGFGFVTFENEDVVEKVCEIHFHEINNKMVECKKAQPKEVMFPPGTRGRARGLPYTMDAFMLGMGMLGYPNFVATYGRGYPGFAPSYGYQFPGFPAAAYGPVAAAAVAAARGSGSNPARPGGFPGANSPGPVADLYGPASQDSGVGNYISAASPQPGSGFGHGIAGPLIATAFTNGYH

SMILES | inhibition in FP competition assay [1] | MSI2 purified with reporter mRNA (anti-FLAG pulldown) [8] | total amount of MSI2 in cells [8] | amount of Luc mRNA in cells (qPCR) [8] | solubility [2] | cellular MSI2 protein levels [3] | change of the protein's melting temperature [9] | other results
COc1ccc(C(=O)OCc2nc(N)c3c(C)c(C)sc3n2)c(N)c1 [R12–8–44] |  |  |  |  |  |  | monotonically-increasing melting temperature with increasing ligand concentration | improvement in potency over parent compound ([1]; FP assay, MSI1 RRM1): more than ten-fold improvement in potency
COc1ccc(C(=O)OCc2nc(N)c3ccccc3n2)c(N)c1 [R12–8] | superior inhibition and solubility than R12 |  |  |  | superior inhibition and solubility than R12 |  | monotonically increasing stabilization with increasing dose | 

Now from value to molecule, other results behind:

inhibition in FP competition assay [1] | MSI2 purified with reporter mRNA (anti-FLAG pulldown) [8] | total amount of MSI2 in cells [8] | amount of Luc mRNA in cells (qPCR) [8] | SMILES | solubility [2] | cellular MSI2 protein levels [3] | change of the protein's melting temperature [9] | other results
showed inhibition |  |  |  | Nc1nc(COC(=O)c2cncc(Br)c2)nc2ccccc12 [R12] | low solubility |  |  | 
 | much less MSI2 is purified | unaffected | unchanged | Cc1cc2nc3c(=O)[nH]c(=O)nc-3n(C)c2cc1C=O [Ro 08–2750, reference compound] |  | unchanged |  | cell viability (CellTiter-Blue) [4]: dramatically diminishes cell viability; cell proliferation (clonogenic assay) [5]: dramatically diminishes cell viability; inhibition of RNA-binding activity of MSI1/MSI2 [6]: inhibit the RNA-binding activity of MSI1/MSI2 in vitro; disease burden [7]: reduce disease burden
inactive | does not disrupt MSI2 pulldown | unaffected | unchanged | Cc1sc2nc(COC(=O)c3cccc(Cl)c3Cl)nc(N)c2c1C [R12-neg] |  | unchanged |  | 
